Data reported in patent US10993935B2, “Compositions and methods for treatment of lung infections” (priority 2018, dated 2021).

Assays:
P. aeruginosa = test: Uronic acid carbazole assay of alginate production; format: cell-based, Pseudomonas aeruginosa
Experimental: Data shown represent means of 5 replicates per group ±standard error (SE). Two-way ANOVA analysis was used with statistical significance set as a P value of <0.01 (****, P<0.0001; **, P<0.001; *, P<0.01).
Uronic Acid Carbazole Assay. Alginate production was measured via carbazole assay. Laboratory and clinical isolate strains were grown in PIB from a single colony isolation. The strains were then plated on 150 mm agar plates containing no antibiotic; RFX at concentrations of 10 μM (MIC50), 6 μM (MIC30), 2 μM (MIC10), and 0.2 μM (MIC1); or TOB at concentrations of 2 μM (MIC50), 1.2 μM (MIC30), 0.4 μM (MIC10), and 0.04 μM (MIC1) and incubated at 37° C. for 48 h. Sterile PBS (30 mL) was added to the plates and the cells plus their mucoid film were collected into 50 mL conical tubes. A 1 mL sample was taken to measure growth via OD at 600 nm. A 700 μL sample was then added to tubes containing 6 mL of a sulfuric acid-borate solution. A 200 μL aliquot of 0.1% carbazole was then added to the tubes and incubated for 30 m at 55° C. The alginate was then measured via OD at 530 nm and plotted against a standard curve made with D-mannuronic acid (Sigma-Aldrich). The reported values represent an average from three independent alginate collections with standard deviation.
To investigate the extent of this inhibition, PAO1, PAO581, and two mucoid P. aeruginosa CF isolates (CF001 and CF010) were grew on PIA plates containing sub-MIC concentrations of either TOB or RFX and measured alginate production with the carbazole assay. […] The MIC normalization was used to compare the effect of the two drugs on inhibition of alginate production, as this allowed the measurement of alginate made by the same number of bacterial cells.

[1] = tested on: promoter PalgD of the alginate biosynthetic operon; test: PalgD-lacZ promoter reporter (β-galactosidase) activity; format: cell-based, Pseudomonas aeruginosa; details: PAO581, CF001, CF010; MIC1, MIC10, MIC30, MIC50 on PIA, 37° C., 24 h
Experimental: FIGS. 2A-2C include graphs showing RFX versus TOB mediated inhibition of the promoter PalgD activity of the alginate biosynthetic operon in laboratory and clinical isolates of P. aeruginosa. The β-galactosidase activity of PalgD was measured using the pLP170-PalgD-lacZ reporter construct in PAO581 (FIG. 2A), CF001 (FIG. 2B), and CF010 (FIG. 2C) grown on PIA plates with increasing concentrations of RFX or TOB (MIC1, MIC10, MIC30, MIC50) at 37° C. for 24 h. Relative expression mean values are shown ±SE of triplicate determinations. Two-way ANOVA was used to determine statistical significance set at a P value of <0.01 (****, P<0.0001).
While RFX inhibits alginate production, additional experiments were conducted to determine whether the inhibition was specific to alginate or whether it was a global suppression of transcription. To test this, the promoter reporter constructs PalgD_lacZ in pLP170 were used to quantify the promoter activity of the alginate biosynthetic operon PalgD. A promoter-less empty vector pLP170-lacZ was used as a negative control. Using the β-galactosidase reporter activity, the activity of PalgD in PAO581 was quantified (FIG. 2A), and two mucoid isolates (CF001 and CF010) from CF patients.

[2] = Adverse effects after nebulization in mice; format: in vivo, C57BL/6 mice; details: mouse, in vivo
Experimental: Drug Nebulization. C57BL/6 mice (n=8) were first exposed to 5 mL DMSO for 10 minutes to determine any adverse effects that may occur from using DMSO. Mice (n=16) were then exposed to TOB in 0.225% saline or RFX in DMSO via nebulization until the 5 mL drug mixture was depleted—typically 10-15 minutes. Nebulization was conducted using the pressure-based nebulizer and chamber purchased from Kent Scientific (Torrington, Conn.). TOB was nebulized at concentrations of 100 mg (n=4) or 400 mg (n=4) in 5 mL of 0.225% saline. RFX was nebulized at concentrations of 100 mg (n=4) or 400 mg (n=4) in 5 ml of 100% dimethyl sulfoxide. Mice were sacrificed immediately after nebulization via CO2 chamber. Lungs were then collected and homogenized. TOB concentrations were measured using ELISA. RFX concentrations were measured via HPLC.
The potential adverse effects of using DMSO were first assessed by nebulizing DMSO alone to a group of C57BL/6 mice (n=8). This type of mice was used due to their natural resistance against infection based on our previous studies. […] To determine the dosage of each drug received by the mice, the lungs were homogenized and drug concentrations of TOB and RFX were determined via ELISA and HPLC, respectively. […] The droplet size for both TOB and RFX were determined to be identical with the average droplet size for TOB and RFX being 5.07 μm and 5.02 μm, respectively. […]

[3] = non-mucoid strain PAO1, sub-MIC concentrations (MIC1-MIC50) on PIA, TOB versus RFX

SMILES | alginate production (P. aeruginosa; [3]) | alginate production (P. aeruginosa; mucoid CF isolates CF001 and CF010, compared to TOB) | alginate production (P. aeruginosa; mucoid strain PAO581, all concentrations tested, compared to TOB) | PalgD promoter activity (β-galactosidase reporter) [1] | adverse effects [2]
NC[C@H]1O[C@H](O[C@H]2[C@H](O)[C@@H](O[C@H]3O[C@H](CO)[C@@H](O)[C@H](N)[C@H]3O)[C@H](N)C[C@@H]2N)[C@H](N)C[C@@H]1O [TOB, tobramycin] | no significant difference in alginate production | – | – | – | –
CO[C@H]1/C=C/O[C@@]2(C)Oc3c(C)c(O)c4c(O)c(c5c(nc6cc(C)ccn65)c4c3C2=O)NC(=O)/C(C)=C\C=C\[C@H](C)[C@H](O)[C@@H](C)[C@@H](O)[C@@H](C)[C@H](OC(C)=O)[C@@H]1C [RFX, rifaximin] | no significant difference in alginate production | significant decrease in alginate production | significantly decreased alginate production | more pronounced effect on promoter activity than TOB | no adverse effects
